# US20210292315A1, “SELENIUM-CONTAINING ISOXAZOLAMINE COMPOUND, PREPARATION METHOD THEREFOR, AND USE THEREOF” (SHANGHAI XINGYE PHARMACEUTICAL TECHNOLOGY CO., LTD, priority 2018, published 2021)
# Read-outs that look alike come from different tables or passages of the source.
# What was measured:
# [1] = Glutathione peroxidase (GPx)-like activity assay, coupled NADPH oxidation at 340 nm; assay type: biochemical; conditions: compound 50 μm, GSH 2.0 mM, pH 7.5, 25° C.; for Initial rate v0, Cum-OOH: peroxide Cum-OOH 1.6 mM; for Initial rate v0, H2O2: peroxide H2O2 1.6 mM; for Initial rate v0, tBuOOH: peroxide tBuOOH 1.6 mM
# Protocol: Method: GPX activity of selenium compounds was assayed by ultraviolet spectrophotometry. Glutathione (2.0 mM), EDTA (1 mM), glutathione disulfide reductase (1.7 units mL^−1), and nicotinamide adenine dinucleotide phosphate […] (NADPH; 0.4 mM) were mixed intopotassium phosphate buffer (0.1 M, pH=7.5). The selenium compounds (50 μm) was added to the above mixture At room temperature (25° C.), and the reaction was started by the addition of H2O2, tBuOOH or Cum-OOH (1.6 mM) respectively. The initial reduction rates were calculated from the rate of NADPH oxidation at 340 nm in a GSH assay. Each initial rate was measured at least three times and calculated from the first 5-10% of the reaction by using 6.22 mM^−1 cm^−1 as the molar extinction coefficient for NADPH. For the peroxidase activity, the rates were corrected for the background reaction between peroxide and thiol.
# [2] = system: TNF-α; assay: TNF-α activity inhibiting assay: LPS-stimulated peripheral blood, TNF-α by ELISA; assay type: cell-based, human; conditions: LPS 10 ng/mL, 6 hours, diluted peripheral blood from healthy volunteers, read-out: TNF-α inhibition (%)
# Protocol: Methods: Peripheral blood from healthy volunteers was collected with EDTA anticoagulant tubes. After being diluted 5-fold with 1640 medium (Gibco, USA), the blood was added to 96-well cell culture plates (Costar, USA) and then treated with 10 μL solution of the compound of general formula (I) of the present invention in DMSO (Sigma, USA), and the final concentration of DMSO was 0.2%. After incubation for 60 minutes in an incubator at 37° C. under 5% CO2, 10 μL LPS (Sigma, USA) was added to the reaction system, and the final concentration was 10 ng/mL. After further culturing for 6 hours in the incubator at 37° C. under 5% CO2, the supernatant was collected. The content of TNF-α was determined by ELISA (BD Biosciences, USA). Absorbance was detected at OD450 nm with a microplate reader, with GD 650 nm as reference. The control, a solution containing 0.2% DMSO medium, was as 0% inhibition. Raw data and standard curves were recorded. The four-parameter drug inhibition curve was plotted by XL-fit software and the inhibition rate of each compound was calculated.
# [3] = biological target: T1, Thioredoxin Reductase 1 (TrxR1) (Homo sapiens, UniProt Q16881); assay: Thioredoxin reductase 1 (TrxR1) activity inhibiting assay, NADPH consumption at 340 nm; assay type: biochemical; conditions: insulin/Trx/NADPH system, absorbance 340 nm; read-out: TrxR inhibition IC50
# T1 sequence (Q16881 151-649 limits assumed): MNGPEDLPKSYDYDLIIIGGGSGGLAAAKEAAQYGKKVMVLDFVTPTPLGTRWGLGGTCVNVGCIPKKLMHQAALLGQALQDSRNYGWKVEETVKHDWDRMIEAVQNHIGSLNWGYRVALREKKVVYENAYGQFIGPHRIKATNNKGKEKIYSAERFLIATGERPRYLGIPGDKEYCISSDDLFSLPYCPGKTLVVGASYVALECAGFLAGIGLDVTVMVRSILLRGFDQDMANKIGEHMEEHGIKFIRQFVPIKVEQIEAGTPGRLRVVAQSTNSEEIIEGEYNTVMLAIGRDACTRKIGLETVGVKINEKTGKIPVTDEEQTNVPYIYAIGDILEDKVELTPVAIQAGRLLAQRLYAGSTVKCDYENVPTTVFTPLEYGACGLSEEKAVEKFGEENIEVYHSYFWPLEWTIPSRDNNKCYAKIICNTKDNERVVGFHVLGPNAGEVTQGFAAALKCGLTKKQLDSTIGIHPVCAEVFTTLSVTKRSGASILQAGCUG
# Protocol: Working solutions: 0.119 mg/mL of TrxR working solution preparation: 175 μL of TrxR stock solution (0.34 mg/mL) was diluted to 500 μL; 1 mM NADPH working solution preparation, NADPH (5 mg) was dissolved in 12 mL potassium phosphate buffer; 1 mM DTNB working solution preparation: 25 mg DTNB was dissolve in 63 mL DMSO; potassium phosphate buffer system preparation: 0.2 mg/mL bovine serum albumin (BSA) and 1 mM EDTA were added to potassium phosphate buffer at pH 7.4 (K2HPO4/KH2PO4).
# Methods: The TrxR1 inhibitory activity study of selenium-containing isoxazolamines in vitro. Insulin, NADPH, Trx, the samples and TrxR1 were added to a microcuvette in order, and subsequently added the work buffer (0.1 mol/L potassium phosphate/2 mmol/L EDTA) to a total volume of 0.5 mL. The concentration of each component in the obtained reaction system is: insulin 130 μmol/L, NADPH […] (Sigma), Trx 4 μmol/L, the added substrate (the selenium-containing isoxazolamines treated samples). After determination of the initial absorption at 340 nm, the enzymatic reaction was started by adding 20 μg extracted TrxR1 proteins, the decrease in absorbance at 340 nm was monitored. One unit of enzymatic activity is defined as the consumption. The activity can be calculated from the extinction coefficient of NADPH, and the unit of enzyme activity is defined as: 1U=ΔA340 nm/min×1000, the TR activity could be calculated with U/L. The results are shown in table 2.
Structure (SMILES),IC50 ([2]; Homo sapiens) [µM],IC50 [3] [µM],IC50 [2] [µM],other results
O=C1CCC(n2[se]c3ccccc3c2=O)C(=O)N1 (stereo not shown) [Compound 1],10 to 100,5 to 50,–,"Initial rate v0, Cum-OOH [1]: 124.5 ± 7.6 μm min^−1; Initial rate v0, H2O2 [1]: 109.7 ± 2.1 μm min^−1; Initial rate v0, tBuOOH [1]: 42.0 ± 3.3 μm min^−1"
O=C1CCC(n2[se]c3cccc([N+](=O)[O-])c3c2=O)C(=O)N1 (stereo not shown) [Compound 2],1 to 10,5 to 50,–,–
Nc1cccc2[se]n(C3CCC(=O)NC3=O)c(=O)c12 (stereo not shown) [Compound 3],< 1,–,–,–
O=C1CCC(n2[se]c3ccc(F)cc3c2=O)C(=O)N1 (stereo not shown) [Compound 4],10 to 100,< 5,–,–
O=C1CCC(n2[se]c3c([N+](=O)[O-])cccc3c2=O)C(=O)N1 (stereo not shown) [Compound 5],1 to 10,50 to 100,–,–
Nc1cccc2c(=O)n(C3CCC(=O)NC3=O)[se]c12 (stereo not shown) [Compound 6],–,–,< 1,–
O=C1CCC(n2[se]c3cc(F)ccc3c2=O)C(=O)N1 (stereo not shown) [Compound 7],10 to 100,< 5,–,"Initial rate v0, Cum-OOH [1]: 142.2 ± 8.2 μm min^−1; Initial rate v0, H2O2 [1]: 128.2 ± 2.0 μm min^−1; Initial rate v0, tBuOOH [1]: 49.3 ± 5.0 μm min^−1"
O=C1CCC(n2[se]c3cc(Cl)ccc3c2=O)C(=O)N1 (stereo not shown) [Compound 8],10 to 100,5 to 50,–,–
CC(=O)Nc1cccc2c(=O)n(C3CCC(=O)NC3=O)[se]c12 (stereo not shown) [Compound 9],10 to 100,5 to 50,–,–
O=C1CCC(n2[se]c3c(F)cccc3c2=O)C(=O)N1 (stereo not shown) [Compound 10],1 to 10,< 5,–,–
COc1cccc2c(=O)n(C3CCC(=O)NC3=O)[se]c12 (stereo not shown) [Compound 11],–,–,1 to 10,–
COc1ccc2[se]n(C3CCC(=O)NC3=O)c(=O)c2c1 (stereo not shown) [Compound 12],1 to 10,< 5,–,"Initial rate v0, Cum-OOH [1]: 116.8 ± 7.2 μm min^−1; Initial rate v0, H2O2 [1]: 121.7 ± 2.2 μm min^−1; Initial rate v0, tBuOOH [1]: 54.5 ± 5.7 μm min^−1"
COc1cc2[se]n(C3CCC(=O)NC3=O)c(=O)c2cc1OC (stereo not shown) [Compound 13],1 to 10,< 5,–,–
COc1cc2c(=O)n(C3CCC(=O)NC3=O)[se]c2c(OC)c1OC (stereo not shown) [Compound 14],–,–,< 1,–
Cc1cccc2c(=O)n(C3CCC(=O)NC3=O)[se]c12 (stereo not shown) [Compound 15],–,–,< 1,–
N#Cc1cccc2c(=O)n(C3CCC(=O)NC3=O)[se]c12 (stereo not shown) [Compound 16],1 to 10,5 to 50,–,–
CC1(C)S[C@@H]2[C@H](n3[se]c4ccccc4c3=O)C(=O)N2[C@H]1C(=O)O [Compound 17],> 100,< 5,–,–
CC1(C)S[C@@H]2[C@H](n3[se]c4ccc(F)cc4c3=O)C(=O)N2[C@H]1C(=O)O [Compound 18],–,–,> 100,–
O=c1c2ccccc2[se]n1C12CC3CC(CC(O)(C3)C1)C2 [Compound 19],–,–,10 to 100,"Initial rate v0, Cum-OOH [1]: 34.2 ± 1.5 μm min^−1; Initial rate v0, H2O2 [1]: 99.7 ± 1.9 μm min^−1; Initial rate v0, tBuOOH [1]: 32.3 ± 3.5 μm min^−1"
O=c1c2cc(F)ccc2[se]n1C12CC3CC(CC(O)(C3)C1)C2 [Compound 20],–,–,10 to 100,–
O=c1c2ccccc2[se]n1-c1nc2ccccc2s1 [Compound 21],10 to 100,5 to 50,–,"Initial rate v0, Cum-OOH [1]: 94.5 ± 4.2 μm min^−1; Initial rate v0, H2O2 [1]: 115.3 ± 2.6 μm min^−1; Initial rate v0, tBuOOH [1]: 35.7 ± 4.2 μm min^−1"
O=c1c2ccccc2[se]n1-c1nc2ccc(OC(F)(F)F)cc2s1 [Compound 22],1 to 10,< 5,–,–

Structure (SMILES),IC50 ([2]; Homo sapiens) [µM],IC50 [3] [µM],IC50 [2] [µM],other results
COc1ccc2nc(-n3[se]c4ccccc4c3=O)sc2c1 [Compound 23],–,5 to 50,10 to 100,–
O=C1CC(n2[se]c3ccccc3c2=O)C(=O)N1 (stereo not shown) [Compound 24],–,–,10 to 100,–
COc1ccc2[se]n(C3CC(=O)NC3=O)c(=O)c2c1 (stereo not shown) [Compound 25],10 to 100,5 to 50,–,–
O=C1CC(n2[se]c3cc(F)ccc3c2=O)C(=O)N1 (stereo not shown) [Compound 26],–,–,10 to 100,"Initial rate v0, Cum-OOH [1]: 164.5 ± 9.1 μm min^−1; Initial rate v0, H2O2 [1]: 145.2 ± 3.4 μm min^−1; Initial rate v0, tBuOOH [1]: 55.7 ± 5.2 μm min^−1"
O=C1CC(n2[se]c3c(F)cccc3c2=O)C(=O)N1 (stereo not shown) [Compound 27],–,5 to 50,1 to 10,–
Cc1cccc2c(=O)n(C3CC(=O)NC3=O)[se]c12 (stereo not shown) [Compound 28],–,–,< 1,–
COc1cccc2c(=O)n(-c3nc4ccc(OC(F)(F)F)cc4s3)[se]c12 [Compound 30],10 to 100,< 5,–,–
O=C1c2ccccc2[Se](=O)N1C12CC3CC(CC(O)(C3)C1)C2 (stereo not shown) [Compound 32],> 100,–,–,"Initial rate v0, Cum-OOH [1]: 11.5 ± 0.2 μm min^−1; Initial rate v0, H2O2 [1]: 36.7 ± 0.8 μm min^−1; Initial rate v0, tBuOOH [1]: 12.0 ± 2.3 μm min^−1"
O=C1c2ccccc2[Se](=O)N1c1nc2ccccc2s1 (stereo not shown) [Compound 33],> 100,–,–,–
O=C1c2ccccc2[Se](=O)N1c1nc2ccc(OC(F)(F)F)cc2s1 (stereo not shown) [Compound 34],10 to 100,50 to 100,–,"Initial rate v0, Cum-OOH [1]: 12.4 ± 0.3 μm min^−1; Initial rate v0, H2O2 [1]: 39.7 ± 1.4 μm min^−1; Initial rate v0, tBuOOH [1]: 14.2 ± 1.1 μm min^−1"
Nc1cccc2c1[Se](=O)N(C1CCC(=O)NC1=O)C2=O (stereo not shown) [Compound 35],–,–,< 1,–
O=C1CCC(N2C(=O)c3cc(F)ccc3[Se]2=O)C(=O)N1 (stereo not shown) [Compound 36],–,–,10 to 100,–
CC(=O)Nc1cccc2c1[Se](=O)N(C1CCC(=O)NC1=O)C2=O (stereo not shown) [Compound 37],–,–,10 to 100,–
O=C1CCC(N2C(=O)c3ccc(F)cc3[Se]2=O)C(=O)N1 (stereo not shown) [Compound 39],–,–,10 to 100,–
COc1cccc2c1[Se](=O)N(C1CCC(=O)NC1=O)C2=O (stereo not shown) [Compound 40],1 to 10,50 to 100,–,–
O=C1CC(N2C(=O)c3ccccc3[Se]2=O)C(=O)N1 (stereo not shown) [Compound 41],–,–,10 to 100,–
COc1cccc2c1[Se]N(C1CCC(=O)NC1=O)C2 (stereo not shown) [Compound 44],1 to 10,–,–,–
COc1ccc2c(c1)CN(C1CCC(=O)NC1=O)[Se]2 (stereo not shown) [Compound 45],–,5 to 50,–,–
COc1cccc2c1[Se]N(C13CC4CC(CC(O)(C4)C1)C3)C2 [Compound 50],10 to 100,–,–,–
"O=c1c2ccccc2[se]n1-c1ccccc1 [Ebselen, reference compound]",–,50 to 100,–,–
"Nc1cccc2c1CN(C1CCC(=O)NC1=O)C2=O (stereo not shown) [Lenadomide, reference compound]",< 1,–,–,–
"O=C1CCC(N2C(=O)c3ccccc3C2=O)C(=O)N1 (stereo not shown) [Thalidomide, reference compound]",> 100,–,–,–
